The text below walks through data of US20250270209A1 (INTERLINE THERAPEUTICS, INC., priority 2022, published 2025).

As a reminder, the IC50 is the midpoint of a concentration-inhibition curve.

Assay [1] addresses T1, wild type LRRK2 overexpressed in recombinant HEK-293T cells (Homo sapiens, UniProt Q5S007).
T1 construct: host or cells: HEK293T (transient transfection with pCMV-LRRK2 WT plasmid)
The experiment in a line: pS935 LRRK2 Cell Assay (HTRF, phospho-LRRK2 Ser935). Type of assay: cell-based. To be noted: LRRK2 Inhibition, Table 8, 2 hours compound incubation. A digest of the protocol:
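HEK-293T cells transiently transfected with wild-type LRRK2 for 24 h, plated overnight, then treated 2 h at 37° C with compound (top 10 μM, 3-fold, 9 doses, duplicates, 0.2% DMSO). Lysates probed overnight at 23° C by sandwich HTRF for pSer935; 665/615 nm ratio read.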

For assay [2], the target named is LRRK2 wild type enzyme (Homo sapiens, UniProt Q5S007). The experiment in a line: Biochemical Assay: LRRK2 TR-FRET (LanthaScreen) kinase assay with LRRKtide substrate. Particulars: LRRK2 Inhibition, Table 8. A digest of the protocol: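 Human wild-type LRRK2 (3 nM) preincubated 15 min with compound (11-point, 3-fold, top 10 μM), then reacted 120 min at 23 °C with 400 nM LRRKtide and 25 μM ATP, pH 8.0. Stopped with EDTA; Tb-anti-pLRRKtide TR-FRET read after 30 min.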
Sequence of LRRK2 wild type enzyme (Q5S007 whole entry): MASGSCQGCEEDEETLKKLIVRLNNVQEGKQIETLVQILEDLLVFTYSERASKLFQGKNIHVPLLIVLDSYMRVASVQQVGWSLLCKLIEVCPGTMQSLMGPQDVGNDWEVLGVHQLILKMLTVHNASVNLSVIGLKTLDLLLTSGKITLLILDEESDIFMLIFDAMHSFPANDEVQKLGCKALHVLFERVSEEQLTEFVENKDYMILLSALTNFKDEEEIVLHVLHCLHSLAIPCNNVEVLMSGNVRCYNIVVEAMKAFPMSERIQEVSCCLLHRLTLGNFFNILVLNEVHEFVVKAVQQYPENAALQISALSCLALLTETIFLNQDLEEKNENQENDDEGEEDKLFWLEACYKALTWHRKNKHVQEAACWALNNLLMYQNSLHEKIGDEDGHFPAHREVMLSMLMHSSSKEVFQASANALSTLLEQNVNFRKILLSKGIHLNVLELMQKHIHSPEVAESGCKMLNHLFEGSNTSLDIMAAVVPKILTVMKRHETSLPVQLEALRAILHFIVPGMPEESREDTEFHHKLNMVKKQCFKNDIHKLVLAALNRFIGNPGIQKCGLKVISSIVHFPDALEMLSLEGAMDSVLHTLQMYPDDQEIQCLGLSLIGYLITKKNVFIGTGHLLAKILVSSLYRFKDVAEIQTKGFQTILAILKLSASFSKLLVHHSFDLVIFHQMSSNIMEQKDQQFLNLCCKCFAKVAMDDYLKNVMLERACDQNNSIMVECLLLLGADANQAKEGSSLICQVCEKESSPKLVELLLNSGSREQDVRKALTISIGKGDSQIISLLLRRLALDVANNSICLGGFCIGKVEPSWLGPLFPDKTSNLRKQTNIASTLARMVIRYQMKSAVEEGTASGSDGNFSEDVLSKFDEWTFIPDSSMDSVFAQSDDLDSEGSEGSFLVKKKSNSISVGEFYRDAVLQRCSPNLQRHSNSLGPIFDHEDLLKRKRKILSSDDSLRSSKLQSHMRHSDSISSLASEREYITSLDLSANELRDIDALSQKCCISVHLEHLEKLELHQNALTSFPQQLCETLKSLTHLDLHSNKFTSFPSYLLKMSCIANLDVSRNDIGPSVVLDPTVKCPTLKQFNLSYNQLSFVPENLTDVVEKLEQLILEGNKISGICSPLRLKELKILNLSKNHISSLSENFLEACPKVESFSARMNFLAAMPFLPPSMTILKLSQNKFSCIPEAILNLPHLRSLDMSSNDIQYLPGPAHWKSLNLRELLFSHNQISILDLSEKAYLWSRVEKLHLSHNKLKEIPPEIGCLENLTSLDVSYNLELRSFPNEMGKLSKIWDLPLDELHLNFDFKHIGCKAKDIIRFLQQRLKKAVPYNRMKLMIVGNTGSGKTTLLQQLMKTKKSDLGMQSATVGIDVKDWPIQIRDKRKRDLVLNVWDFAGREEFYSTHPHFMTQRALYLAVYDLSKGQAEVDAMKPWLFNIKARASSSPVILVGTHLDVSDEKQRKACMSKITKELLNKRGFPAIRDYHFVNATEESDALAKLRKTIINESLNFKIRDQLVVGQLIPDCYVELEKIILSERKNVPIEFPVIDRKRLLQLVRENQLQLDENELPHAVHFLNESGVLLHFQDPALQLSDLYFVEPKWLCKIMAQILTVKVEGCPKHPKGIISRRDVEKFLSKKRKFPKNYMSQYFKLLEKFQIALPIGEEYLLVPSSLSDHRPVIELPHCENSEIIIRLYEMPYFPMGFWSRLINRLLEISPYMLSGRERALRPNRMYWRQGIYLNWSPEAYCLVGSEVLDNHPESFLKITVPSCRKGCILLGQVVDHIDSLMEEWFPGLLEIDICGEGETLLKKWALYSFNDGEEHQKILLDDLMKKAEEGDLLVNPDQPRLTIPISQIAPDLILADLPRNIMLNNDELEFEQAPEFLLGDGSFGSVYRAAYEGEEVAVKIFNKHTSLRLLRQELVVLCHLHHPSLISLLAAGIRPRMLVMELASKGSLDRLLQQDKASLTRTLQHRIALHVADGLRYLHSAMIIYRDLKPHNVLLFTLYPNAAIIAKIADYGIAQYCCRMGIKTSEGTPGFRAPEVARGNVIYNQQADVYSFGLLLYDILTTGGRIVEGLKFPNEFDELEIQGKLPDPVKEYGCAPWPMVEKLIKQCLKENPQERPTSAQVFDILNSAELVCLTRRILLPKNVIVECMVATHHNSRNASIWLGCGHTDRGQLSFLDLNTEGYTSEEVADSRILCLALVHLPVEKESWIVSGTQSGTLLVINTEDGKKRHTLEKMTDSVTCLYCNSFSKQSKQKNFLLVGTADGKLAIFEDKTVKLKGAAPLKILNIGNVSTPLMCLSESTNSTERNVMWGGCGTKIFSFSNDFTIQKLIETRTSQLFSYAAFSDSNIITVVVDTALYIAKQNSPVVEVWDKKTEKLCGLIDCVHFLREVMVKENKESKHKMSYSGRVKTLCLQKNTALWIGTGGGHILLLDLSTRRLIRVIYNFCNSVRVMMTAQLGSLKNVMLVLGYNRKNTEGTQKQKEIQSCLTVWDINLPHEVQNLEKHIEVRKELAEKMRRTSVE
Background: Time-resolved FRET reads energy transfer from a long-lived donor to a nearby acceptor.

T1 sequence (Q5S007 whole entry): as above

Regarding `COc1cc(C(F)(F)F)ncc1NC(=O)Cc1nc2cnc3ccc(C#N)cc3c2n1[C@@H]1CCO[C@H](C)C1` [Compound 228, N-[4-methoxy-6-(trifluoromethyl)-3-pyridyl]{3-[(2R,4R)-2-methyltetrahydro-2H-pyran-4-yl]-12-cyano-3,5,8-triazatricyclo[7.4.0.0^2,6]trideca-1,4,6,8,10,12-hexaen-4-yl}acetamide], the IC50 in assay [1] was 3.17 nM; in assay [2] it was 0.36 nM.

For `C[C@@H]1C[C@H](n2c(C3CC(=O)N([C@H]4CCOC4)C3)nc3cnc4ccc(C#N)cc4c32)CCO1` (stereo partly drawn) [Compound 45, 1-[(2R,4R)-2-methyloxan-4-yl]-2-{5-oxo-1-[(3S)-oxolan-3-yl]pyrrolidin-3-yl}-1H-imidazo[4,5-c]quinoline-8-carbonitrile], the half-maximal inhibitory concentration (IC50) in assay [1] worked out at 550 nM; in assay [2], 3.24 nM.

Take `C[C@@H]1C[C@H](n2c(CNC(=O)CC3CC3)nc3cnc4ccc(C#N)cc4c32)CCO1` [Compound 18, N-({8-cyano-1-[(2R,4R)-2-methyloxan-4-yl]-1H-imidazo[4,5-c]quinolin-2-yl}methyl)-2-cyclopropylacetamide]: the IC50 in assay [1] came to 182 nM; in assay [2], 2.58 nM.

For `C[C@@H]1C[C@H](n2c(CC(=O)Nc3cncnc3)nc3cnc4ccc(Cl)cc4c32)CCO1` [Compound 331, N-5-pyrimidinyl{3-[(2R,4R)-2-methyltetrahydro-2H-pyran-4-yl]-12-chloro-3,5,8-triazatricyclo[7.4.0.0^2,6]trideca-1(9),2(6),4,7,10,12-hexaen-4-yl}acetamide], the IC50 came to 5.73 nM in assay [1] and 0.608 nM in assay [2].

In the case of `Cc1nc(C)c(NC(=O)Cc2nc3cnc4ccc(C#N)cc4c3n2[C@@H]2CCO[C@H](C)C2)c(C)n1` [Compound 253, N-(2,4,6-trimethyl-5-pyrimidinyl){3-[(2R,4R)-2-methyltetrahydro-2H-pyran-4-yl]-12-cyano-3,5,8-triazatricyclo[7.4.0.0^2,6]trideca-1,4,6,8,10,12-hexaen-4-yl}acetamide], the IC50 in assay [1] is 25.8 nM; in assay [2] it was 0.538 nM.

With `C[C@@H]1C[C@H](n2c(CC(=O)Nc3cncc(C#N)c3)nc3cnc4ccc(C#N)cc4c32)CCO1` [Compound 284, N-(5-cyano-3-pyridyl){3-[(2R,4R)-2-methyltetrahydro-2H-pyran-4-yl]-12-cyano-3,5,8-triazatricyclo[7.4.0.0^2,6]trideca-1,4,6,8,10,12-hexaen-4-yl}acetamide], the IC50 in assay [1] was determined as 20 nM; in assay [2], 0.538 nM.

For `C[C@@H]1C[C@H](n2c(C3CC(=O)N(c4ccnn4C)C3)nc3cnc4ccc(C#N)cc4c32)CCO1` (stereo partly drawn) [Compound 103, 2-[1-(1-methyl-1H-pyrazol-5-yl)-5-oxopyrrolidin-3-yl]-1-[(2R,4R)-2-methyloxan-4-yl]-1H-imidazo[4,5-c]quinoline-8-carbonitrile], the results for the half-inhibitory concentration (IC50) in assay [1] and in assay [2] were 400 nM and 1.98 nM, respectively.

Take `C[C@@H]1C[C@H](n2c(CC(=O)Nc3cc(C(F)(F)F)no3)nc3cnc4ccc(C#N)cc4c32)CCO1` [Compound 342, N-[3-(trifluoromethyl)-5-isoxazolyl]{3-[(2R,4R)-2-methyltetrahydro-2H-pyran-4-yl]-12-cyano-3,5,8-triazatricyclo[7.4.0.0^2,6]trideca-1(9),2(6),4,7,10,12-hexaen-4-yl}acetamide]: the IC50 in assay [1] turned out to be 75.1 nM; in assay [2] it was 2.17 nM.

Consider `C[C@@H]1C[C@H](n2c(C3CC(=O)N(Cc4cccnc4)C3)nc3cnc4ccc(C#N)cc4c32)CCO1` (mixture of isomers) [Compound 57, 1-[(2R,4R)-2-methyloxan-4-yl]-2-[(3RS)-5-oxo-1-[(pyridin-3-yl)methyl]pyrrolidin-3-yl]-1H-imidazo[4,5-c]quinoline-8-carbonitrile], for which the IC50 in assay [1] was found to be 216 nM; in assay [2] it was 0.958 nM.

With `C[C@@H]1C[C@H](n2c(CCC(=O)NCC3CC3)nc3cnc4ccc(C#N)cc4c32)CCO1` [Compound 170, 3-{8-cyano-1-[(2R,4R)-2-methyloxan-4-yl]-1H-imidazo[4,5-c]quinolin-2-yl}-N-(cyclopropylmethyl)propanamide], the values for the half-maximal inhibitory concentration (IC50) in assay [1] and in assay [2] were 329 nM and 3.11 nM, respectively.

As for `C[C@@H]1C[C@H](n2c(CC(=O)N[C@@H]3C[C@H]3F)nc3cnc4ccc(C#N)cc4c32)CCO1` [Compound 277, N-[(1R,2R)-2-fluorocyclopropyl]{3-[(2R,4R)-2-methyltetrahydro-2H-pyran-4-yl]-12-cyano-3,5,8-triazatricyclo[7.4.0.0^2,6]trideca-1(13),2(6),4,7,9,11-hexaen-4-yl}acetamide], the IC50 came to 52.2 nM in assay [1] and 0.828 nM in assay [2].

As for `C[C@@H]1C[C@H](n2c(CS(=O)(=O)NCC3CC3)nc3cnc4ccc(C#N)cc4c32)CCO1` [Compound 55, 1-{8-cyano-1-[(2R,4R)-2-methyloxan-4-yl]-1H-imidazo[4,5-c]quinolin-2-yl}-N-(cyclopropylmethyl)methanesulfonamide], the half-inhibitory concentration (IC50) is 272 nM in assay [1] and 2.3 nM in assay [2].

With `CN1CC(n2c(CC(=O)NCC3CC3)nc3cnc4ccc(C#N)cc4c32)CCC1=O` (single isomer, unassigned) [Compound 90], the figures for the concentration for half-maximal inhibition (IC50) in assay [1] and in assay [2] were 799 nM and 1.42 nM, respectively.

As for `C[C@@H]1C[C@H](n2c(CC(=O)NCC3CC3)nc3cnc4ccc(Cl)cc4c32)CCO1` [Compound 107, 2-{8-chloro-1-[(2R,4R)-2-methyloxan-4-yl]-1H-imidazo[4,5-c]quinolin-2-yl}-N-(cyclopropylmethyl)acetamide], the IC50 is 10.9 nM in assay [1] and 0.354 nM in assay [2].

In the case of `C[C@@H]1C[C@H](n2c(C3CC(=O)N([C@H]4CCCOC4)C3)nc3cnc4ccc(C#N)cc4c32)CCO1` (stereo partly drawn) [Compound 52, 1-[(2R,4R)-2-methyloxan-4-yl]-2-{1-[(3S)-oxan-3-yl]-5-oxopyrrolidin-3-yl}-1H-imidazo[4,5-c]quinoline-8-carbonitrile], the concentration for half-maximal inhibition (IC50) in assay [1] was determined as 401 nM; in assay [2], 2.91 nM.

Consider `C[C@@H]1C[C@H](n2c(CC(=O)NCC3CCC3)nc3cnc4ccc(C#N)cc4c32)CCO1` [Compound 89, 2-{8-cyano-1-[(2R,4R)-2-methyloxan-4-yl]-1H-imidazo[4,5-c]quinolin-2-yl}-N-(cyclobutylmethyl)acetamide], for which the half-inhibitory concentration (IC50) turned out to be 34 nM in assay [1] and 0.589 nM in assay [2].

In the case of `C[C@@H]1C[C@H](n2c(CC(=O)Nc3cccnc3)nc3cnc4ccc(C#N)cc4c32)CCO1` [Compound 320, N-3-pyridyl{3-[(2R,4R)-2-methyltetrahydro-2H-pyran-4-yl]-12-cyano-3,5,8-triazatricyclo[7.4.0.0^2,6]trideca-1(9),2(6),4,7,10,12-hexaen-4-yl}acetamide], the IC50 in assay [1] came to 6.31 nM; in assay [2], 0.571 nM.

Regarding `CCn1cc(NC(=O)Cc2nc3cnc4ccc(C#N)cc4c3n2[C@@H]2CCO[C@H](C)C2)cn1` [Compound 310, N-(1-ethyl-4-pyrazolyl){3-[(2R,4R)-2-methyltetrahydro-2H-pyran-4-yl]-12-cyano-3,5,8-triazatricyclo[7.4.0.0^2,6]trideca-1,4,6,8,10,12-hexaen-4-yl}acetamide], the IC50 amounted to 15.4 nM in assay [1] and 0.712 nM in assay [2].

On to `C[C@@H]1C[C@H](n2c(CC(=O)NC3(c4ncccn4)CC3)nc3cnc4ccc(C#N)cc4c32)CCO1` [Compound 360, N-[1-(2-pyrimidinyl)cyclopropyl]{3-[(2R,4R)-2-methyltetrahydro-2H-pyran-4-yl]-12-cyano-3,5,8-triazatricyclo[7.4.0.0^2,6]trideca-1,4,6,8,10,12-hexaen-4-yl}acetamide], for which the 50% inhibitory concentration (IC50) in assay [1] worked out at 104 nM; in assay [2], 1.24 nM.

In the case of `C[C@@H]1C[C@H](n2c(CC(=O)Nc3cnccc3O)nc3cnc4ccc(C#N)cc4c32)CCO1` [Compound 208, N-(4-hydroxy-3-pyridyl){3-[(2R,4R)-2-methyltetrahydro-2H-pyran-4-yl]-12-cyano-3,5,8-triazatricyclo[7.4.0.0^2,6]trideca-1,4,6,8,10,12-hexaen-4-yl}acetamide], the IC50 stood at 4930 nM in assay [1] and 0.582 nM in assay [2].

Turning to `C[C@@H]1C[C@H](n2c(CS(=O)(=O)C3CC3)nc3cnc4ccc(C5CC5)cc4c32)CCO1` [Compound 62, 2-[(cyclopropanesulfonyl)methyl]-8-cyclopropyl-1-[(2R,4R)-2-methyloxan-4-yl]-1H-imidazo[4,5-c]quinoline], the IC50 in assay [1] worked out at 1250 nM; in assay [2], 16.4 nM.

For the compound `Cc1nocc1NC(=O)Cc1nc2cnc3ccc(C#N)cc3c2n1[C@@H]1CCO[C@H](C)C1` [Compound 238, N-(3-methyl-4-isoxazolyl){3-[(2R,4R)-2-methyltetrahydro-2H-pyran-4-yl]-12-cyano-3,5,8-triazatricyclo[7.4.0.0^2,6]trideca-1,4,6,8,10,12-hexaen-4-yl}acetamide], the concentration for half-maximal inhibition (IC50) was found to be 7.15 nM in assay [1] and 0.415 nM in assay [2].

Consider `COc1nccnc1NC(=O)Cc1nc2cnc3ccc(C#N)cc3c2n1[C@@H]1CCO[C@H](C)C1` [Compound 312, N-(3-methoxy-2-pyrazinyl){3-[(2R,4R)-2-methyltetrahydro-2H-pyran-4-yl]-12-cyano-3,5,8-triazatricyclo[7.4.0.0^2,6]trideca-1(9),2(6),4,7,10,12-hexaen-4-yl}acetamide], for which the half-inhibitory concentration (IC50) in assay [1] came out at 5.68 nM; in assay [2], 0.574 nM.

On to `C[C@@H]1C[C@H](n2c(CC(=O)NCc3cccnc3)nc3cnc4ccc(C#N)cc4c32)CCO1` [Compound 83, 2-{8-cyano-1-[(2R,4R)-2-methyloxan-4-yl]-1H-imidazo[4,5-c]quinolin-2-yl}-N-[(pyridin-3-yl)methyl]acetamide], for which the results for the half-inhibitory concentration (IC50) in assay [1] and in assay [2] were 25.1 nM and 0.33 nM, respectively.
